Source: ChEMBL document CHEMBL3576778, “Structure-Activity Relationship Studies of a Series of Semisynthetic Lipopeptides Leading to the Discovery of Surotomycin, a Novel Cyclic Lipopeptide Being Developed for the Treatment of Clostridium difficile-Associated Diarrhea” (J Med Chem, 2015)
≈ marks a conversion by molar mass, not a printed value.

Columns and labels:
Type in all cases: functional
Enterococcus faecalis = test: Antimicrobial activity against daptomycin-resistant Enterococcus faecalis ATCC 49452 incubated anaerobically at 37 degC for 48 hrs by agar dilution method; settings: ATCC 49452, 48 h
Staphylococcus aureus = test: Antimicrobial activity against daptomycin-susceptible Staphylococcus aureus ATCC 29213 incubated anaerobically at 37 degC for 48 hrs by agar dilution method; settings: ATCC 29213, 48 h
Enterococcus faecium = test: Antimicrobial activity against daptomycin-resistant Enterococcus faecium ATCC 6569 incubated anaerobically at 37 degC for 48 hrs by agar dilution method; settings: ATCC 6569, 48 h
Clostridioides difficile = test: Antimicrobial activity against daptomycin-resistant Clostridium difficile NAP1 incubated anaerobically at 37 degC for 48 hrs by agar dilution method; settings: NAP1, 48 h

For `C[C@H]1NC(=O)[C@@H](CC(=O)O)NC(=O)[C@H](CCCN)NC(=O)CNC(=O)[C@@H](NC(=O)[C@H](CC(=O)O)NC(=O)[C@H](CC(N)=O)NC(=O)[C@H](Cc2c[nH]c3ccccc23)NC(=O)C2CCCCCCCCCCC2)[C@@H](C)OC(=O)[C@H](CC(=O)c2ccccc2N)NC(=O)[C@H]([C@@H](C)CC(=O)O)NC(=O)[C@@H](CO)NC(=O)CNC(=O)[C@H](CC(=O)O)NC1=O`, the MIC (Enterococcus faecalis) was > 32 µg/mL, the MIC (Staphylococcus aureus) was 1 µg/mL (≈ 0.602 µM) and the MIC (Enterococcus faecium) was 32 µg/mL (≈ 19.3 µM). For the same molecule, the MIC (Clostridioides difficile) was 4 µg/mL (≈ 2.41 µM).

In the case of `CCCCCCc1ccc(C(=O)N[C@@H](Cc2c[nH]c3ccccc23)C(=O)N[C@@H](CC(N)=O)C(=O)N[C@@H](CC(=O)O)C(=O)N[C@@H]2C(=O)NCC(=O)N[C@@H](CCCN)C(=O)N[C@H](CC(=O)O)C(=O)N[C@H](C)C(=O)N[C@@H](CC(=O)O)C(=O)NCC(=O)N[C@H](CO)C(=O)N[C@@H]([C@@H](C)CC(=O)O)C(=O)N[C@@H](CC(=O)c3ccccc3N)C(=O)O[C@@H]2C)cc1`, the MIC (Enterococcus faecalis) is reported as > 32 µg/mL, the MIC (Staphylococcus aureus) is reported as 1 µg/mL (≈ 0.604 µM) and the MIC (Enterococcus faecium) is reported as 32 µg/mL (≈ 19.3 µM). It also gave an MIC (Clostridioides difficile) of 4 µg/mL (≈ 2.42 µM).

For `CCCCCCSc1ccc(-c2csc(C(=O)N[C@@H](Cc3c[nH]c4ccccc34)C(=O)N[C@@H](CC(N)=O)C(=O)N[C@@H](CC(=O)O)C(=O)N[C@@H]3C(=O)NCC(=O)N[C@@H](CCCN)C(=O)N[C@H](CC(=O)O)C(=O)N[C@H](C)C(=O)N[C@@H](CC(=O)O)C(=O)NCC(=O)N[C@H](CO)C(=O)N[C@@H]([C@@H](C)CC(=O)O)C(=O)N[C@@H](CC(=O)c4ccccc4N)C(=O)O[C@@H]3C)c2)cc1`, the MIC (Enterococcus faecalis) was > 32 µg/mL, the MIC (Staphylococcus aureus) was 8 µg/mL (≈ 4.52 µM) and the MIC (Enterococcus faecium) was 16 µg/mL (≈ 9.05 µM). It also gave an MIC (Clostridioides difficile) of 8 µg/mL (≈ 4.52 µM).

`CCCOc1ccc(-c2ccc(C(=O)N[C@@H](Cc3c[nH]c4ccccc34)C(=O)N[C@@H](CC(N)=O)C(=O)N[C@@H](CC(=O)O)C(=O)N[C@@H]3C(=O)NCC(=O)N[C@@H](CCCN)C(=O)N[C@H](CC(=O)O)C(=O)N[C@H](C)C(=O)N[C@@H](CC(=O)O)C(=O)NCC(=O)N[C@H](CO)C(=O)N[C@@H]([C@@H](C)CC(=O)O)C(=O)N[C@@H](CC(=O)c4ccccc4N)C(=O)O[C@@H]3C)cc2)cc1` was tested, and the MIC (Enterococcus faecalis) was > 32 µg/mL, the MIC (Staphylococcus aureus) was 0.5 µg/mL (≈ 0.293 µM) and the MIC (Enterococcus faecium) was 32 µg/mL (≈ 18.8 µM). For the same molecule, the MIC (Clostridioides difficile) was 4 µg/mL (≈ 2.35 µM).

Molecule `CCCCCOc1ccc(-c2ccc(C(=O)N[C@@H](Cc3c[nH]c4ccccc34)C(=O)N[C@@H](CC(N)=O)C(=O)N[C@@H](CC(=O)O)C(=O)N[C@@H]3C(=O)NCC(=O)N[C@@H](CCCN)C(=O)N[C@H](CC(=O)O)C(=O)N[C@H](C)C(=O)N[C@@H](CC(=O)O)C(=O)NCC(=O)N[C@H](CO)C(=O)N[C@@H]([C@@H](C)CC(=O)O)C(=O)N[C@@H](CC(=O)c4ccccc4N)C(=O)O[C@@H]3C)cc2)cc1` has an MIC (Enterococcus faecalis) of 4 µg/mL (≈ 2.31 µM), an MIC (Staphylococcus aureus) of 0.25 µg/mL (≈ 0.144 µM) and an MIC (Enterococcus faecium) of 2 µg/mL (≈ 1.15 µM). For the same molecule, the MIC (Clostridioides difficile) was 2 µg/mL (≈ 1.15 µM).

Molecule `CCCCCCOc1ccc(-c2ccc(C(=O)N[C@@H](Cc3c[nH]c4ccccc34)C(=O)N[C@@H](CC(N)=O)C(=O)N[C@@H](CC(=O)O)C(=O)N[C@@H]3C(=O)NCC(=O)N[C@@H](CCCN)C(=O)N[C@H](CC(=O)O)C(=O)N[C@H](C)C(=O)N[C@@H](CC(=O)O)C(=O)NCC(=O)N[C@H](CO)C(=O)N[C@@H]([C@@H](C)CC(=O)O)C(=O)N[C@@H](CC(=O)c4ccccc4N)C(=O)O[C@@H]3C)cc2)cc1` has an MIC (Enterococcus faecalis) of 2 µg/mL (≈ 1.14 µM), an MIC (Staphylococcus aureus) of 0.5 µg/mL (≈ 0.286 µM) and an MIC (Enterococcus faecium) of 1 µg/mL (≈ 0.572 µM). It also gave an MIC (Clostridioides difficile) of 2 µg/mL (≈ 1.14 µM).

Work on `CCCCCCCOc1ccc(-c2ccc(C(=O)N[C@@H](Cc3c[nH]c4ccccc34)C(=O)N[C@@H](CC(N)=O)C(=O)N[C@@H](CC(=O)O)C(=O)N[C@@H]3C(=O)NCC(=O)N[C@@H](CCCN)C(=O)N[C@H](CC(=O)O)C(=O)N[C@H](C)C(=O)N[C@@H](CC(=O)O)C(=O)NCC(=O)N[C@H](CO)C(=O)N[C@@H]([C@@H](C)CC(=O)O)C(=O)N[C@@H](CC(=O)c4ccccc4N)C(=O)O[C@@H]3C)cc2)cc1` yielded an MIC (Enterococcus faecalis) of 4 µg/mL (≈ 2.27 µM), an MIC (Staphylococcus aureus) of 0.25 µg/mL (≈ 0.142 µM) and an MIC (Enterococcus faecium) of 1 µg/mL (≈ 0.568 µM). It also gave an MIC (Clostridioides difficile) of 2 µg/mL (≈ 1.14 µM).
